From patent publication US20210100760A1 (Strongbridge Dublin Limited, priority 2019, published 2021)
Where two headings read alike, the source gives them in different places. Values belong to the molecule of their own block, whether it stands above or below them.

Assays:
OAT1 = target: T1, OAT1 (Homo sapiens, UniProt Q4U2R8); experiment: OAT1 substrate determination in HEK293 cells; assay type: in vitro ADME; conditions: for Uptake ratio: OAT1 vs control cells; for Uptake (Average ± SD), OAT1: OAT1-expressing HEK293 cells; for recovery at 10 μM: human
T1 sequence (Q4U2R8 1-563): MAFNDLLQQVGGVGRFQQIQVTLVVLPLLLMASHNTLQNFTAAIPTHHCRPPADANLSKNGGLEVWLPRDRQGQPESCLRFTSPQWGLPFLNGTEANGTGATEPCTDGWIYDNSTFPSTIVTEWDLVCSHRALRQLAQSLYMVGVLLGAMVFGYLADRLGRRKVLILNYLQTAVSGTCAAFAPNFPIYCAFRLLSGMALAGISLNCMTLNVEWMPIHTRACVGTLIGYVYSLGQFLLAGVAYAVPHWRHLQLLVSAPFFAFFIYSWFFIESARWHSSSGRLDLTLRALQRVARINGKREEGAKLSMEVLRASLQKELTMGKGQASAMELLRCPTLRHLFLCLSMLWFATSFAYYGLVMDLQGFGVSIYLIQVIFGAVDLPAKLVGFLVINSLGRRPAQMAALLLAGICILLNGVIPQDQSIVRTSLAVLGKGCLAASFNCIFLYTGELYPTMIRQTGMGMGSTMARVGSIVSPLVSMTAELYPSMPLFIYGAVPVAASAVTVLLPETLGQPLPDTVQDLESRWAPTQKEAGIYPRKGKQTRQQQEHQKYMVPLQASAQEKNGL

OAT3 [1] = target: T2, OAT3 (Homo sapiens, UniProt Q8TCC7); experiment: OAT3 substrate determination in HEK293 cells; assay type: in vitro ADME; conditions: for Uptake ratio: OAT3 vs control cells; for Uptake (Average ± SD), OAT3: OAT3-expressing HEK293 cells; for recovery at 10 μM: human
T2 sequence (Q8TCC7 1-542): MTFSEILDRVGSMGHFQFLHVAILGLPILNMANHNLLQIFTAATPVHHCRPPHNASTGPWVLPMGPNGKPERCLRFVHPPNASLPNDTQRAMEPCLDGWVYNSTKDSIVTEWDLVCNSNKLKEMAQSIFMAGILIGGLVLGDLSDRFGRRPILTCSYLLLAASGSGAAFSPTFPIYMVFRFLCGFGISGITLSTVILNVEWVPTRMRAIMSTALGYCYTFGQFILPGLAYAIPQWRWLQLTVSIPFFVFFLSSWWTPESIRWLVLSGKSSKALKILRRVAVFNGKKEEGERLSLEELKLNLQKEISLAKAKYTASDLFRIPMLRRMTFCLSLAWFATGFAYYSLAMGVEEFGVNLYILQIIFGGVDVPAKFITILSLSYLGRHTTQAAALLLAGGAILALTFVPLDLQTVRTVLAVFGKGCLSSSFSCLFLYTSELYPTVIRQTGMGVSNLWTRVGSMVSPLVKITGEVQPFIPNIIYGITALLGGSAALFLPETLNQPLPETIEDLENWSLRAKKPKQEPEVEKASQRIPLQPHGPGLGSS

[2] = low plasma concentrations (1.0 to 2.0 mg/100 mL); cited from earlier work
OAT3 [3] = target: T2, OAT3; experiment: OAT3 positive-control inhibition, [3H]-Estrone-3-sulfate probe substrate uptake in HEK293 cells; assay type: in vitro ADME; conditions: [3H]-Estrone-3-sulfate (50 nM) probe, inhibitor 100 μM
[4] = dichlorphenamide 10 μM + probenecid 100 μM, 1 min
[5] = dichlorphenamide 10 μM + probenecid 100 μM, 3 min
[6] = dichlorphenamide 10 μM + probenecid 100 μM, 10 min
[7] = dichlorphenamide 10 μM + probenecid 100 μM, control HEK293 cells, 1 min
[8] = dichlorphenamide 10 μM + probenecid 100 μM, control HEK293 cells, 3 min
[9] = dichlorphenamide 10 μM + probenecid 100 μM, control HEK293 cells, 10 min
[10] = dichlorphenamide 10 μM, incubation 1 min
[11] = dichlorphenamide 10 μM, incubation 3 min
[12] = dichlorphenamide 10 μM, incubation 10 min

Substrate of OAT1 (conclusion from Tables 1 and 2) (OAT1; HEK293 cells): is a substrate of OAT1 | Uptake ratio (OAT1; [4]): 1.29 | Uptake ratio (OAT1; [5]): 1.11 | Uptake ratio (OAT1; [6]): 1.01 | Uptake ratio (OAT1; dichlorphenamide 10 μM, 1 min): 2.41 | Uptake ratio (OAT1; dichlorphenamide 10 μM, 3 min): 2.39 | Uptake ratio (OAT1; dichlorphenamide 10 μM, 10 min): 2.23 | Uptake (Average ± SD), OAT1 (OAT1; [4]): 54.4 ± 2.7 pmol/mg protein | Uptake (Average ± SD), OAT1 (OAT1; [5]): 135 ± 6 pmol/mg protein | Uptake (Average ± SD), OAT1 (OAT1; [6]): 286 ± 17 pmol/mg protein | Uptake (Average ± SD), Control (OAT1; [7]): 42.2 ± 2.4 pmol/mg protein | Uptake (Average ± SD), Control (OAT1; [8]): 121 ± 8 pmol/mg protein | Uptake (Average ± SD), Control (OAT1; [9]): 284 ± 19 pmol/mg protein | Uptake (Average ± SD), OAT1 (OAT1; [10]): 109 ± 2 pmol/mg protein | Uptake (Average ± SD), OAT1 (OAT1; [11]): 294 ± 14 pmol/mg protein | Uptake (Average ± SD), OAT1 (OAT1; [12]): 591 ± 11 pmol/mg protein | Uptake (Average ± SD), Control (OAT1; dichlorphenamide 10 μM, control HEK293 cells (vector only), incubation 1 min): 45.4 ± 0.4 pmol/mg protein | Uptake (Average ± SD), Control (OAT1; dichlorphenamide 10 μM, control HEK293 cells (vector only), incubation 3 min): 123 ± 6 pmol/mg protein | Uptake (Average ± SD), Control (OAT1; dichlorphenamide 10 μM, control HEK293 cells (vector only), incubation 10 min): 265 ± 8 pmol/mg protein | recovery at 10 μM (OAT1; HEK293 cells expressing OAT1, pH 7.4, read-out: Recovery, OAT1): 98.5% | recovery at 10 μM (OAT1; control HEK293 cells (transfected with vector only), pH 7.4, read-out: Recovery, Control): 95.3% | Substrate of OAT3 (conclusion from Tables 3 and 4) (OAT3 [1]; HEK293 cells): is a substrate of OAT3 | Uptake ratio (OAT3 [1]; [4]): 0.987 | Uptake ratio (OAT3 [1]; [5]): 1.00 | Uptake ratio (OAT3 [1]; [6]): 1.24 | Uptake ratio (OAT3 [1]; dichlorphenamide 10 μM, 1 min): 2.26 | Uptake ratio (OAT3 [1]; dichlorphenamide 10 μM, 3 min): 2.64 | Uptake ratio (OAT3 [1]; dichlorphenamide 10 μM, 10 min): 2.75 | Uptake (Average ± SD), OAT3 (OAT3 [1]; [4]): 123 ± 7 pmol/mg protein | Uptake (Average ± SD), OAT3 (OAT3 [1]; [5]): 126 ± 18 pmol/mg protein | Uptake (Average ± SD), OAT3 (OAT3 [1]; [6]): 177 ± 16 pmol/mg protein | Uptake (Average ± SD), Control (OAT3 [1]; [7]): 124 ± 13 pmol/mg protein | Uptake (Average ± SD), Control (OAT3 [1]; [8]): 125 ± 5 pmol/mg protein | Uptake (Average ± SD), Control (OAT3 [1]; [9]): 143 ± 41 pmol/mg protein | Uptake (Average ± SD), OAT3 (OAT3 [1]; [10]): 333 ± 24 pmol/mg protein | Uptake (Average ± SD), OAT3 (OAT3 [1]; [11]): 311 ± 29 pmol/mg protein | Uptake (Average ± SD), OAT3 (OAT3 [1]; [12]): 463 ± 27 pmol/mg protein | Uptake (Average ± SD), Control (OAT3 [1]; dichlorphenamide 10 μM, control HEK293 cells, incubation 1 min): 147 ± 47 pmol/mg protein | Uptake (Average ± SD), Control (OAT3 [1]; dichlorphenamide 10 μM, control HEK293 cells, incubation 3 min): 118 ± 3 pmol/mg protein | Uptake (Average ± SD), Control (OAT3 [1]; dichlorphenamide 10 μM, control HEK293 cells, incubation 10 min): 169 ± 9 pmol/mg protein | recovery at 10 μM (OAT3 [1]; HEK293 cells expressing OAT3, pH 7.4, read-out: Recovery, OAT3): 77.9% | recovery at 10 μM (OAT3 [1]; control HEK293 cells, pH 7.4, read-out: Recovery, Control): 68.8%
Structure (SMILES): NS(=O)(=O)c1cc(Cl)c(Cl)c(S(N)(=O)=O)c1 [Dichlorphenamide, 4,5-dichloro-1,3-benzenedisulfonamide]

Structure (SMILES): Nc1ccc(C(=O)NCC(=O)O)cc1 [aminohippurate, p-aminohippuric acid]
Fraction cleared by the kidneys from the renal blood stream in a single circulation (average) [2]: 90%

Background corrected uptake rate (OAT3 [3]): 0.0184 pmol/mg/min | Uptake (Average ± SD), OAT3 (OAT3 [3]; OAT3-expressing HEK293 cells): 0.104 ± 0.006 pmol/mg protein | Uptake (Average ± SD), Control (OAT3 [3]; control HEK293 cells): 0.0670 ± 0.0124 pmol/mg protein | activity at 100 μM (OAT3 [3]; human, HEK293 cells expressing OAT3 and control cells, pH 7.4, probe [3H]-Estrone-3-sulfate (50 nM), relative to solvent control, read-out: Percent of control): 3.2%
Structure (SMILES): CCCN(CCC)S(=O)(=O)c1ccc(C(=O)O)cc1 [Probenecid]
